Test results reported in US20050096254A1, “Peptide deformylase activated prodrugs” (priority 2002, published 2005).
In brackets after ≈: the same amount, converted by molar mass.

System: E. coli/Tem-1
Experiment: MIC susceptibility testing (modified NCCLS)
Type: cell-based
Conditions: Table 4, E. coli expressing TEM-1 beta-lactamase
Protocol: The NCCLS (National Committee for Clinical Laboratory Standards), method to determine MIC's of antimicrobial compounds is modified for high-throughput screening. All stocks of tested compounds are prepared in either water or in DMSO depending on solubility. At the highest concentration, DMSO content should not exceed 0.5%. Briefly, twenty 2-fold serial dilutions of test compounds from the highest concentration is made in a 384-well microtiter plate. Each well is inoculated with testing bacteria in broth to a final concentration of approximately 1-1.5×10^6 cells/ml. Bacterial growth is determined by the increase of optical density at 600 nm using a microplate reader (Tecan SpectraFluor Plus). The MIC is defined as the lowest concentration at which bacterial growth (equivalent to visible growth) was inhibited after 16 to 18 hours of incubation at the appropriate temperature required for the bacteria growth.
E. coli/TEM—E. coli expressing TEM-1 beta-lactamase; MRSA—Methicillin Resistant S. Aureus; MSSA—Methicillin Sensitive S. Aureus.

CSCC[C@H](NC=O)C(=O)N[C@@H](CC(C)C)C(=O)Oc1cc(Cl)ccc1Oc1ccc(Cl)cc1Cl [Compound #2]
MIC (Exp. #1): 16 µg/mL (≈ 28.5 µM) | MIC (Exp. #2): 16 µg/mL (≈ 28.5 µM)
